In PMC9668928, “Zandelisib (ME-401) in Japanese patients with relapsed or refractory indolent non-Hodgkin’s lymphoma: an open-label, multicenter, dose-escalation phase 1 study” (International Journal of Hematology, 2022):
pIC50: −log10 of the molar value. Entries after “also recorded” stand apart in the source; their conditions may differ. Marks after values point to notes of the source that are not given here.

Experiments:
[1] = system: patients with B-cell malignancies; conditions: phase 1b; cited from earlier work
[2] = Phase 1 study: plasma pharmacokinetics, non-compartmental analysis; type: in vivo, human; conditions: for pre-dose concentration, mean ± SD: 60 mg daily; for median tmax: after single and multiple doses
Excerpt: The primary endpoint was the safety [number of patients with treatment-emergent adverse events (TEAEs), based on Common Terminology Criteria for Adverse Events version 5.0] and tolerability (including laboratory values, vital signs, and electrocardiogram performance) of zandelisib in Japanese patients. Hepatobiliary disorder, aspartate/alanine (AST/ALT) increased, diarrhea/colitis, organizing pneumonia, stomatitis, or rash were defined as irAEs in this manuscript. Secondary endpoints included PK (plasma concentrations and PK parameters) and the efficacy of zandelisib. Blood samples for PK evaluation were collected at pre-dose, 1.5, 3, 5, 8, 10, 12 (optional), and 24 h post-dose on Cycle 1 day 1 and Cycle 2 day 1, and at pre-dose on Cycle 1 days 8, 15, and 22. The PK parameters for Cycle 1 day 1 and Cycle 2 day 1 were calculated for each patient by non-compartmental analysis. PK parameters included maximum plasma drug concentration (Cmax), area under the plasma concentration–time curve (AUC) from time zero to the last measurable point (AUC0–t), the AUC from time zero to infinity (AUC0-inf), and terminal half-life (t1/2).

[3] = system: PI3Kδ signaling pathway; parameters: method as in PMID 21378270, PMID 21803855, PMID 20959606, PMID 31506873; conditions: read-out: half maximal inhibitory concentration [IC50]; cited from earlier work

## CN1CCC(c2ccccc2CC(C)(C)Nc2nc(N3CCOCC3)nc(-n3c(C(F)F)nc4ccccc43)n2)CC1 [zandelisib]
[1]
  dose-limiting toxicities (DLTs): No dose-limiting toxicities (DLTs) were reported
  maximum tolerated dose (MTD): not reached
  objective response rate (ORR): 79%
  recommended phase 2 dose (RP2D): 60 mg/day
[2]; 45 mg, Cycle 1 day 1, n = 2
  AUC0–inf, mean ± SD: 479 ± 112^c ng h/mL
  t1/2, mean ± SD: 12.5 ± 0.8^c h
[2]; 45 mg, Cycle 1 day 1, n = 3
  AUC0–t (24 h), mean ± SD: 304 ± 90 ng·h/mL
  Cmax, mean ± SD: 27.5 ± 11.0 ng/mL
  tmax, median (min–max): 3.00 (2.88–9.53) h
[2]; 45 mg, Cycle 2 day 1, n = 2
  t1/2, mean ± SD: 32.5 ± 10.3^c h
[2]; 45 mg, Cycle 2 day 1, n = 3
  AUC0–t (24 h), mean ± SD: 601 ± 171 ng·h/mL
  Cmax, mean ± SD: 46.4 ± 6.2 ng/mL
  tmax, median (min–max): 3.08 (2.95–7.98) h
[2]; Cycle 1 Day 8
  pre-dose concentration, mean ± SD: 25.2 ± 8.2 ng/mL
[2]; Cycle 1 Day 15
  pre-dose concentration, mean ± SD: 26.1 ± 9.6 ng/mL
[2]; Cycle 1 Day 22
  pre-dose concentration, mean ± SD: 28.2 ± 9.5 ng/mL
[2]; Cycle 2 Day 1
  pre-dose concentration, mean ± SD: 26.2 ± 13.1 ng/mL
[2]; 60 mg, Cycle 1 day 1, n = 6
  AUC0–inf, mean ± SD: 731 ± 331 ng·h/mL
  AUC0–t (24 h), mean ± SD: 435 ± 161 ng·h/mL
  Cmax, mean ± SD: 36.6 ± 13.2 ng/mL
  t1/2, mean ± SD: 16.4 ± 3.9 h
  tmax, median (min–max): 3.94 (3.00–7.83) h
[2]; 60 mg, Cycle 2 day 1, n = 5
  t1/2, mean ± SD: 23.5 ± 10.9^d h
[2]; 60 mg, Cycle 2 day 1, n = 6
  AUC0–t (24 h), mean ± SD: 974 ± 339 ng·h/mL
  Cmax, mean ± SD: 62.8 ± 19.4 ng/mL
  tmax, median (min–max): 4.96 (2.83–8.00) h
[2]; 45 and 60 mg
  dose proportionality of exposure (Cmax and AUC): generally dose proportional up to 60 mg/day
  exposures (Cmax and AUC) on Cycle 2 Day 1 versus Cycle 1 Day 1: 1.5–2 fold
[2]; 45 mg
  median tmax: 3 h
[2]; 60 mg
  median tmax: ~ 4.96 h
[2]; daily dosing
  time to PK steady state: PK reached steady state by Day 8; also recorded: reached steady state following 7 days of dosing
[3]
  pIC50: 9.22
